Measurements from patent publication US20110269837A1, “PHOSPHORUS BINDER COMPOSITION FOR TREATMENT OF HYPERPHOSPHATEMIA” (BIOLINK LIFE SCIENCES, INC., priority 2010, published 2011).
Structures can show the parent of a compound that is named as a salt. Where two headings read alike, the source gives them in different places. Blank lines part the entries; values can stand above or below the compound they belong to.

Legend:
[1] = Sheikh et al. 1989, cited from earlier work
[2] = healthy human subjects, anticipated
Source text: Net calcium absorption will be measured by a validated method, such as the one described in detail by Bo-Linn, G. W. et al., Journal of Clinical Investigation, 73: 640-647 (1984). The procedure that will be followed is described below.
On each day, subjects will be prepared by a mannitol-electrolyte gastrointestinal lavage, in order to cleanse the gastrointestinal tract. […] Then each subject will eat a test meal of 80 g ground sirloin steak, 100 g French fried potatoes, 30 g Swiss cheese and 250 mL water containing 10 g of polyethylene glycol (PEG3500) as a non-absorbable marker. After the meal, each subject will consume 25 mEq of calcium, in the same form as will have been consumed prior to the meal, or additional placebo, with 100 mL of water. Duplicate meals will be prepared (one for consumption and one to be analyzed for calcium and phosphorus). The duplicate meals will be analyzed for calcium and phosphorus and are expected to contain about 350 mg of phosphorus and about 215 mg of calcium. […]
Ten hours after a meal, a second lavage will be begun, using the procedure described above. […] All urine voided during the 10-hour period will be collected and analyzed for phosphorus and calcium. Rectal effluent will be collected, pooled with any stool passed during the 10-hour period and analyzed for phosphorus and calcium. Absorption will be calculated according to the following equation: […]

[3] = for Observed in vitro Pi Binding, %: inventor's experiments, mean of triplicate determinations; for Pi binding (FIG. 1): 24 hours
Experimental: The pH of each solution was adjusted to the desired value by the addition of concentrated hydrochloric acid or sodium hydroxide, as appropriate.
An HPLC method with conductivity detection was developed and validated for use in the determination of succinate, acetate and phosphate. The separation was performed on a Dionex AS11 […] HPLC column integrated with an Agilent Series 1100 HPLC system, and detection of the anionic species was enabled using a Dionex ED50 Electrochemical Detector, operating in Conductivity Mode. Limits of Detection and Quantitation were enhanced through the use of a Dionex Anion Self-Regenerating Suppressor. After assay-specific development and verification of assay performance were completed, the analysis of phosphate and succinate or acetate was performed by sampling the test solution and diluting it, if necessary, to a concentration within the linear range of the Assay. The sample was then injected onto the HPLC column and eluted with a sodium hydroxide gradient. Data were acquired using Agilent ChemStation® software.
Experimental Methods: Experiments were completed in triplicate in which 2.77 g of Na2HPO4.7 H2O (equivalent to 320 mg of elemental phosphorus) was dissolved in 570 mL of deionized water. The test or control binder was dissolved in deionized water to a volume of 30 mL. The binder solution was added to the phosphorus solution to give a final volume of 600 mL. For each binder study, the phosphorus solutions were titrated by addition of dilute HCl or dilute NaOH to five different initial pH levels: 4, 5, 6, 7, and 8. (These solution pH's span the pH range of the gastrointestinal tract.) Then the beakers containing the solutions were covered with plastic wrap and placed on a stir plate that agitated the solution at ˜20 cycles per minute overnight. This stirring rate has been selected because in vitro antacid activity at such low stirring rates has been reported to correlate well with in vivo antacid activity in the stomach. Samples for ion chromatographic assay of solution phosphate (Pi) were taken at 24 hours post-mixing (the maximum time available for phosphorus binding that has been reported in related in vivo studies). The decrease in phosphorus concentration from the original concentration in the phosphorus solution to that of the filtrate represents the bound phosphorus.

Compound: calcium gluconate
Observed in vitro Pi Binding, % ([1]; pH 6.0): 90%

Compound: O=C([O-])CC(O)(CC(=O)[O-])C(=O)[O-].O=C([O-])CC(O)(CC(=O)[O-])C(=O)[O-].[Ca+2].[Ca+2].[Ca+2] [Calcium Citrate, calcium citrate]
Observed in vitro Pi Binding, % ([1]; pH 6.0): 10% | Observed in vitro Pi Binding, % ([1]; pH 6.5): 20% at pH 6.5 (NOTE 2)

Compound: O=C([O-])[O-].[Ca+2] [Calcium Carbonate, calcium carbonate]
Observed in vitro Pi Binding, % ([1]; pH 6.0): 90%

Pi binding compared with calcium acetate (FIG. 1) ([3]; each pH value in the range from pH 4 to 8): matches or exceeds | Observed in vitro Pi Binding, % ([3]; pH 4.0): 59.4% | Observed in vitro Pi Binding, % ([3]; pH 6.0): 94.0%
Compound: O=C(O)CCC(=O)O [Calcium Succinate, butanedioic acid calcium salt]
dietary phosphorus absorbed from the GI tract ([2]; ingested close in time to test meal): about 20% | change in the percentage of dietary calcium absorbed from the GI tract ([2]; versus placebo day): less than 10%

Compound: CC(O)C(=O)[O-].CC(O)C(=O)[O-].[Ca+2] (centres unmarked) [Calcium Lactate, calcium lactate]
Observed in vitro Pi Binding, % ([1]; pH 6.0): 90%

Compound: CC(=O)[O-].CC(=O)[O-].[Ca+2] [Calcium Acetate, calcium acetate]
Pi binding (FIG. 1) ([3]; pH 4): 100% | Observed in vitro Pi Binding, % ([3]; pH 4.0): 58.6% | Pi binding (FIG. 1) ([3]; pH 5): 92% | Pi binding (FIG. 1) ([3]; pH 6): 100% | Observed in vitro Pi Binding, % ([3]; pH 6.0): 93.8% | Pi binding (FIG. 1) ([3]; pH 7): 100% | Pi binding (FIG. 1) ([3]; pH 8): 100%
